Test results taken from EP4722207A1, “OXOISOINDOLINYL-SUBSTITUTED TETRAHYDROPYRIMIDINEDIONE DERIVATIVE AND USE THEREOF” (Gluetacs Therapeutics (Shanghai) Co., Ltd., priority 2023, dated 2024).

Experiments:
Type in all cases: cell-based
Conditions in all cases: compounds at 50 nM and 500 nM, 24 hours
[1] = target: T1, WEE1 (Homo sapiens, UniProt P30291+Q96SW2); test: Western-blot assay, substrate protein degradation in hPBMCs: WEE1
T1 construct: effects of the compounds of the present disclosure on the expression of target proteins in cells; endogenous in cells; host or cells: human PBMCs (hPBMCs)

[2] = target: T2, IKZF1 (Homo sapiens, UniProt Q13422+Q96SW2); test: Western-blot assay, substrate protein degradation in hPBMCs: IKZF1
T2 construct: effects of the compounds of the present disclosure on the expression of target proteins in cells; endogenous in cells; host or cells: human PBMCs (hPBMCs)

[3] = target: T3, IKZF2 (Homo sapiens, UniProt Q96SW2+Q9UKS7); test: Western-blot assay, substrate protein degradation in hPBMCs: IKZF2
T3 construct: effects of the compounds of the present disclosure on the expression of target proteins in cells; endogenous in cells; host or cells: human PBMCs (hPBMCs)

[4] = target: T4, IKZF3 (Homo sapiens, UniProt Q96SW2+Q9UKT9); test: Western-blot assay, substrate protein degradation in hPBMCs: IKZF3
T4 construct: effects of the compounds of the present disclosure on the expression of target proteins in cells; endogenous in cells; host or cells: human PBMCs (hPBMCs)

[5] = target: T5, CK1α (Homo sapiens, UniProt P48729+Q96SW2); test: Western-blot assay, substrate protein degradation in hPBMCs: CK1α
T5 construct: effects of the compounds of the present disclosure on the expression of target proteins in cells; endogenous in cells; host or cells: human PBMCs (hPBMCs)

[6] = target: T6, GSPT1 (Homo sapiens, UniProt P15170+Q96SW2); test: Western-blot assay, substrate protein degradation in hPBMCs: GSPT1
T6 construct: effects of the compounds of the present disclosure on the expression of target proteins in cells; endogenous in cells; host or cells: human PBMCs (hPBMCs)
T6 sequence (P15170 whole entry): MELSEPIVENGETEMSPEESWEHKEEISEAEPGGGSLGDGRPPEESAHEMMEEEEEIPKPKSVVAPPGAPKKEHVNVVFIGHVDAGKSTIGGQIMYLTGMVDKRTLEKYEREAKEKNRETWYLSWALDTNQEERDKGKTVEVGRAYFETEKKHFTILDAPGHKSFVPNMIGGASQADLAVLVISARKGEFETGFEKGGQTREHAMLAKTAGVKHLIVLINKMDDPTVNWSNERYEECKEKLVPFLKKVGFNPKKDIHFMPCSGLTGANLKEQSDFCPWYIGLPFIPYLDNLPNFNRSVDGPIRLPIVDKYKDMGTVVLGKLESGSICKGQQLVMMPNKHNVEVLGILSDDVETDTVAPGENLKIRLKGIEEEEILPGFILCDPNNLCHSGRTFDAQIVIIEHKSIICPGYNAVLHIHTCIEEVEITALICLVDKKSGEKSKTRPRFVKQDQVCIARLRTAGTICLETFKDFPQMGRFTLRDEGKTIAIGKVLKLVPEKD
T6 sequence (Q96SW2 whole entry): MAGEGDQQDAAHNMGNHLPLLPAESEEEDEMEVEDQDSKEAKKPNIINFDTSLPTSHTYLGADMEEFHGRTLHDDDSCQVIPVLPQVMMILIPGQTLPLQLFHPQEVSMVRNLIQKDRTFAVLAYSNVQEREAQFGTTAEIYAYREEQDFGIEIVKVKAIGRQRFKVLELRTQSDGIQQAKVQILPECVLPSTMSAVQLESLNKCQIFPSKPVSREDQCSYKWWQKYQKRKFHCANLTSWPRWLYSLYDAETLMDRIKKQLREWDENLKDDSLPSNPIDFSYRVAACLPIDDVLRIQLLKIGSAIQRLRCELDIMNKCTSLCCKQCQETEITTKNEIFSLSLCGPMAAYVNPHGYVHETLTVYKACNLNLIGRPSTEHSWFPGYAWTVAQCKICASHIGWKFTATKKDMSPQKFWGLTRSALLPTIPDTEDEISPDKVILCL
T6 sequence (Q16531 whole entry partner): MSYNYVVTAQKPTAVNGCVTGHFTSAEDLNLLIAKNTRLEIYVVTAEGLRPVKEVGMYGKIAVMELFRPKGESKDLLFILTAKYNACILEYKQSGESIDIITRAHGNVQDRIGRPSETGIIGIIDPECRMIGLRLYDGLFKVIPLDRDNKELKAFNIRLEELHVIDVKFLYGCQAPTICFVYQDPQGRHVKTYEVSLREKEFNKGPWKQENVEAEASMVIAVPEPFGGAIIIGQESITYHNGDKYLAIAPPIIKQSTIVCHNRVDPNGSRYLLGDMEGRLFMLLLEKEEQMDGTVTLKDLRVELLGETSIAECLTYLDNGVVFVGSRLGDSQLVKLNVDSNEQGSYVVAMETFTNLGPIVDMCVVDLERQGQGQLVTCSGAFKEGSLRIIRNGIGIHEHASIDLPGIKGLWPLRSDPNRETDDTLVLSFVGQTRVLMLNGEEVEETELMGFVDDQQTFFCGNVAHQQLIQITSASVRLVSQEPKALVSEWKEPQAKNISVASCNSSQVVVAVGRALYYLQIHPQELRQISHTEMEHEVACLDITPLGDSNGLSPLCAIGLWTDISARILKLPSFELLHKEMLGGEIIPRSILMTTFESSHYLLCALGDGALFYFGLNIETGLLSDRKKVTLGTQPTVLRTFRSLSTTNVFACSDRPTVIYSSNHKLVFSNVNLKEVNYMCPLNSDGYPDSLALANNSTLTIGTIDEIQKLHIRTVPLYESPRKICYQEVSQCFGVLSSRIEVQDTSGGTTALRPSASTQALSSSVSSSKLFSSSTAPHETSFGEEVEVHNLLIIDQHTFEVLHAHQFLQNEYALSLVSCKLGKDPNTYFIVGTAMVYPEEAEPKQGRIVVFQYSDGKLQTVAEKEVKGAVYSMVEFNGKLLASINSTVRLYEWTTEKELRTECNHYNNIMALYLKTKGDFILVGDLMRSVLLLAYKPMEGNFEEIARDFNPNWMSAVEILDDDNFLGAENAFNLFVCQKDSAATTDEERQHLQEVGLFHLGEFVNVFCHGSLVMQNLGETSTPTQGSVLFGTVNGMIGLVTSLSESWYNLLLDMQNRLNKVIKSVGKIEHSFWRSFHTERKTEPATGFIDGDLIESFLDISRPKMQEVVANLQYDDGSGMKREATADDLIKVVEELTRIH

T5 sequence (P48729 whole entry): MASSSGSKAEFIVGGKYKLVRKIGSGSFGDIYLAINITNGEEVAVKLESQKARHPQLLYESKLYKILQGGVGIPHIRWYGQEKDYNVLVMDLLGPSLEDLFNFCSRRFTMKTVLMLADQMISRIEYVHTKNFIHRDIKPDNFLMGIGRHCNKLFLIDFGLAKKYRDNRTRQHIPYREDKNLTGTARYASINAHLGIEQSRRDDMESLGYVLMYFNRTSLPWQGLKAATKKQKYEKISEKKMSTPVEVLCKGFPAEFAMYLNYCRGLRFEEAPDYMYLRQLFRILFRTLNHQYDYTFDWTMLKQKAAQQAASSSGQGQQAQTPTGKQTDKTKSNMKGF
T5 sequence (Q96SW2 whole entry): as the sequence (Q96SW2 whole entry) above
T5 sequence (Q16531 whole entry partner): as the sequence (Q16531 whole entry partner) above
T3 sequence (Q9UKS7 whole entry): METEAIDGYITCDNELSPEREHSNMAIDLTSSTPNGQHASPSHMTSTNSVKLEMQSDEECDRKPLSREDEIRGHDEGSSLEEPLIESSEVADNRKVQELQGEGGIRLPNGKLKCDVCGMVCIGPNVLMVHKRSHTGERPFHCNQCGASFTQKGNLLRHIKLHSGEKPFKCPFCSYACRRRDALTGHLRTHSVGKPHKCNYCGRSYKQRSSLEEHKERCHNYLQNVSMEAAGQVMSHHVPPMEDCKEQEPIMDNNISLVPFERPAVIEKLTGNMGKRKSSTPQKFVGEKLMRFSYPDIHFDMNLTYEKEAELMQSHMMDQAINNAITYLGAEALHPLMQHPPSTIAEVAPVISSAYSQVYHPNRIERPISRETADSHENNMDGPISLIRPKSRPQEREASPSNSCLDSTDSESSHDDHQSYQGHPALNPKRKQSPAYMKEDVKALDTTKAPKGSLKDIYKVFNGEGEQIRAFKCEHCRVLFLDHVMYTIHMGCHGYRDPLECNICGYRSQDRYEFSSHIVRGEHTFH
T3 sequence (Q96SW2 whole entry): as the sequence (Q96SW2 whole entry) above
T3 sequence (Q16531 whole entry partner): as the sequence (Q16531 whole entry partner) above
T1 sequence (P30291 whole entry): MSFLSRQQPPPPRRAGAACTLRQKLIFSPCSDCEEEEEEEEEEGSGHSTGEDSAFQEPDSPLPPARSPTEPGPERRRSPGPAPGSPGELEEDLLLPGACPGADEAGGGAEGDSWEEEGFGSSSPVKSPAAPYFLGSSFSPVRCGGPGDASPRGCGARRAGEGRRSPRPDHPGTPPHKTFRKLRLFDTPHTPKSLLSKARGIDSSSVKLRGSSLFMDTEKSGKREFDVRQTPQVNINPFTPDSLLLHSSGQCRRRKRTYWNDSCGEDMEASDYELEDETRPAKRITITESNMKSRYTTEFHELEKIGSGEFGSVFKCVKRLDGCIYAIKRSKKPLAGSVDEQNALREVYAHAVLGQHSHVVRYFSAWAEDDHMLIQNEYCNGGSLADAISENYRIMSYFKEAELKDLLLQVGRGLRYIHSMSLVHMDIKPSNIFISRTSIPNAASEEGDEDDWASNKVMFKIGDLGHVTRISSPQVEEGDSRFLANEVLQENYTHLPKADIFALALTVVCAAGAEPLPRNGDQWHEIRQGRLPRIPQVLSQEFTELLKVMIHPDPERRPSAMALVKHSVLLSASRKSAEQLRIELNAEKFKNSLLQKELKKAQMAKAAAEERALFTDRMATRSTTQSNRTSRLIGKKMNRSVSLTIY
T1 sequence (Q96SW2 whole entry): as the sequence (Q96SW2 whole entry) above
T1 sequence (Q16531 whole entry partner): as the sequence (Q16531 whole entry partner) above
T2 sequence (Q13422 whole entry): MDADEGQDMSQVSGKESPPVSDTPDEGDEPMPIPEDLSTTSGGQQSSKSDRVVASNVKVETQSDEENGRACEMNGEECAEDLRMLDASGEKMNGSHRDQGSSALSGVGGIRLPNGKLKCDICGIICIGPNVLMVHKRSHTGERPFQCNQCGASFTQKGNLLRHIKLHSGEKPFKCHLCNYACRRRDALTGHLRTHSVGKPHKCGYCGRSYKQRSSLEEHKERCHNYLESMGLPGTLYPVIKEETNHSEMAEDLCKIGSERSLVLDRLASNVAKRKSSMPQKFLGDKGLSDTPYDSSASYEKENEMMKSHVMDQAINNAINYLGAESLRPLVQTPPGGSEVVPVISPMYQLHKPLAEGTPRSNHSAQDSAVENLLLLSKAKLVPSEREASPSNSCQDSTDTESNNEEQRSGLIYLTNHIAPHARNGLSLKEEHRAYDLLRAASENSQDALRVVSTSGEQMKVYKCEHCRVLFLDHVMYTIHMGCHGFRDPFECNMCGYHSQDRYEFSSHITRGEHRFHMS
T2 sequence (Q96SW2 whole entry): as the sequence (Q96SW2 whole entry) above
T2 sequence (Q16531 whole entry partner): as the sequence (Q16531 whole entry partner) above

Row | Structure (SMILES) | WEE1 substrate protein remaining % [1] | IKZF1 substrate protein remaining % [2] | IKZF2 substrate protein remaining % [3] | IKZF3 substrate protein remaining % [4] | CK1α substrate protein remaining % [5] | GSPT1 substrate protein remaining % [6]
1 | O=C1CCN(N2C(=O)c3ccc(CN4CCN(c5cccnc5)CC4)cc3C2=O)C(=O)N1 [GT-06971, 2-(2,4-dioxotetrahydropyrimidin-1(2H)-yl)-5-((4-(pyridin-3-yl)piperazin-1-yl)methyl)isoindoline-1,3-dione] | A ("A" is defined as 0% ≤ substrate protein remaining % ≤ 80%) | B ("B" is defined as 80%< substrate protein remaining %≤ 100%) | A ("A" is defined as 0% ≤ substrate protein remaining % ≤ 80%) | B ("B" is defined as 80%< substrate protein remaining %≤ 100%) | B ("B" is defined as 80%< substrate protein remaining %≤ 100%) | B ("B" is defined as 80%< substrate protein remaining %≤ 100%)
2 | O=C1CCN(N2C(=O)c3ccc(CN4CCN(c5cncc(Cl)c5Cl)CC4)cc3C2=O)C(=O)N1 [GT-06972, 5-((4-(4,5-dichloropyridin-3-yl)piperazin-1-yl)methyl)-2-(2,4-dioxotetrahydropyrimidin-1(2H)-yl)isoindoline-1,3-dione] | A ("A" is defined as 0% ≤ substrate protein remaining % ≤ 80%) | B ("B" is defined as 80%< substrate protein remaining %≤ 100%) | A ("A" is defined as 0% ≤ substrate protein remaining % ≤ 80%) | B ("B" is defined as 80%< substrate protein remaining %≤ 100%) | B ("B" is defined as 80%< substrate protein remaining %≤ 100%) | B ("B" is defined as 80%< substrate protein remaining %≤ 100%)
3 | O=C1CCN(N2C(=O)c3ccc(CN4CCN(c5c(Cl)ccnc5Cl)CC4)cc3C2=O)C(=O)N1 [GT-06973, 5-((4-(2,4-dichloropyridin-3-yl)piperazin-1-yl)methyl)-2-(2,4-dioxotetrahydropyrimidin-1(2H)-yl)isoindoline-1,3-dione] | A ("A" is defined as 0% ≤ substrate protein remaining % ≤ 80%) | A ("A" is defined as 0% ≤ substrate protein remaining % ≤ 80%) | B ("B" is defined as 80%< substrate protein remaining %≤ 100%) | A ("A" is defined as 0% ≤ substrate protein remaining % ≤ 80%) | B ("B" is defined as 80%< substrate protein remaining %≤ 100%) | B ("B" is defined as 80%< substrate protein remaining %≤ 100%)
4 | O=C1CCN(N2Cc3cc(CN4CCN(c5c(Cl)ccnc5Cl)CC4)ccc3C2=O)C(=O)N1 [GT-06974, 1-(5-((4-(2,4-dichloropyridin-3-yl)piperazin-1-yl)methyl)-1-oxoisoindolin-2-yl)dihydropyrimidine-2,4(1H,3H)-dione] | A ("A" is defined as 0% ≤ substrate protein remaining % ≤ 80%) | A ("A" is defined as 0% ≤ substrate protein remaining % ≤ 80%) | B ("B" is defined as 80%< substrate protein remaining %≤ 100%) | A ("A" is defined as 0% ≤ substrate protein remaining % ≤ 80%) | B ("B" is defined as 80%< substrate protein remaining %≤ 100%) | B ("B" is defined as 80%< substrate protein remaining %≤ 100%)
5 | O=C1CCN(N2C(=O)c3ccc(CN4CCN(c5ccc(Cl)nc5)CC4)cc3C2=O)C(=O)N1 [GT-07027, 5-((4-(6-chloropyridin-3-yl)piperazin-1-yl)methyl)-2-(2,4-dioxotetrahydropyrimidin-1(2H)-yl)isoindoline-1,3-dione] | A ("A" is defined as 0% ≤ substrate protein remaining % ≤ 80%) | B ("B" is defined as 80%< substrate protein remaining %≤ 100%) | B ("B" is defined as 80%< substrate protein remaining %≤ 100%) | B ("B" is defined as 80%< substrate protein remaining %≤ 100%) | B ("B" is defined as 80%< substrate protein remaining %≤ 100%) | A ("A" is defined as 0% ≤ substrate protein remaining % ≤ 80%)
6 | O=C1CCN(N2Cc3cc(CN4CCN(c5ncnc(Cl)c5Cl)CC4)ccc3C2=O)C(=O)N1 [GT-07028, 1-(5-((4-(5,6-dichloropyrimidin-4-yl)piperazin-1-yl)methyl)-1-oxoisoindolin-2-yl)dihydropyrimidine-2,4(1H,3H)-dione] | A ("A" is defined as 0% ≤ substrate protein remaining % ≤ 80%) | B ("B" is defined as 80%< substrate protein remaining %≤ 100%) | B ("B" is defined as 80%< substrate protein remaining %≤ 100%) | B ("B" is defined as 80%< substrate protein remaining %≤ 100%) | B ("B" is defined as 80%< substrate protein remaining %≤ 100%) | A ("A" is defined as 0% ≤ substrate protein remaining % ≤ 80%)
7 | O=C1CCN(N2Cc3cc(CN4CCN(c5cnnc(Cl)c5Cl)CC4)ccc3C2=O)C(=O)N1 [GT-07029, 1-(5-((4-(5,6-dichloropyridazin-4-yl)piperazin-1-yl)methyl)-1-oxoisoindolin-2-yl)dihydropyrimidine-2,4(1H,3H)-dione] | A ("A" is defined as 0% ≤ substrate protein remaining % ≤ 80%) | B ("B" is defined as 80%< substrate protein remaining %≤ 100%) | A ("A" is defined as 0% ≤ substrate protein remaining % ≤ 80%) | B ("B" is defined as 80%< substrate protein remaining %≤ 100%) | B ("B" is defined as 80%< substrate protein remaining %≤ 100%) | A ("A" is defined as 0% ≤ substrate protein remaining % ≤ 80%)
8 | O=C1CCN(N2Cc3cc(CN4CCN(c5cc(Cl)nnc5Cl)CC4)ccc3C2=O)C(=O)N1 [GT-07030, 1-(5-((4-(3,6-dichloropyridazin-4-yl)piperazin-1-yl)methyl)-1-oxoisoindolin-2-yl)dihydropyrimidine-2,4(1H,3H)-dione] | B ("B" is defined as 80%< substrate protein remaining %≤ 100%) | B ("B" is defined as 80%< substrate protein remaining %≤ 100%) | A ("A" is defined as 0% ≤ substrate protein remaining % ≤ 80%) | B ("B" is defined as 80%< substrate protein remaining %≤ 100%) | B ("B" is defined as 80%< substrate protein remaining %≤ 100%) | B ("B" is defined as 80%< substrate protein remaining %≤ 100%)
9 | O=C1CCN(N2Cc3cc(CN4CCN(c5ncncn5)CC4)ccc3C2=O)C(=O)N1 [GT-07031, 1-(5-((4-(1,3,5-triazin-2-yl)piperazin-1-yl)methyl)-1-oxoisoindolin-2-yl)dihydropyrimidine-2,4(1H,3H)-dione] | B ("B" is defined as 80%< substrate protein remaining %≤ 100%) | A ("A" is defined as 0% ≤ substrate protein remaining % ≤ 80%) | B ("B" is defined as 80%< substrate protein remaining %≤ 100%) | A ("A" is defined as 0% ≤ substrate protein remaining % ≤ 80%) | A ("A" is defined as 0% ≤ substrate protein remaining % ≤ 80%) | A ("A" is defined as 0% ≤ substrate protein remaining % ≤ 80%)
10 | O=C1CCN(N2Cc3cc(CN4CCN(c5c(Cl)cncc5Cl)CC4)ccc3C2=O)C(=O)N1 [GT-07032, 1-(5-((4-(3,5-dichloropyridin-4-yl)piperazin-1-yl)methyl)-1-oxoisoindolin-2-yl)dihydropyrimidine-2,4(1H,3H)-dione] | B ("B" is defined as 80%< substrate protein remaining %≤ 100%) | B ("B" is defined as 80%< substrate protein remaining %≤ 100%) | B ("B" is defined as 80%< substrate protein remaining %≤ 100%) | B ("B" is defined as 80%< substrate protein remaining %≤ 100%) | B ("B" is defined as 80%< substrate protein remaining %≤ 100%) | A ("A" is defined as 0% ≤ substrate protein remaining % ≤ 80%)
11 | Cc1cc(N2CCN(Cc3ccc4c(c3)CN(N3CCC(=O)NC3=O)C4=O)CC2)cc(C)n1 [GT-07033, 1-(5-((4-(2,6-dimethylpyridin-4-yl)piperazin-1-yl)methyl)-1-oxoisoindolin-2-yl)dihydropyrimidine-2,4(1H,3H)-dione] | B ("B" is defined as 80%< substrate protein remaining %≤ 100%) | B ("B" is defined as 80%< substrate protein remaining %≤ 100%) | B ("B" is defined as 80%< substrate protein remaining %≤ 100%) | B ("B" is defined as 80%< substrate protein remaining %≤ 100%) | B ("B" is defined as 80%< substrate protein remaining %≤ 100%) | A ("A" is defined as 0% ≤ substrate protein remaining % ≤ 80%)
